Assay results taken from publication PMC4669759 (Cell Death & Disease, 2015).

Columns and labels:
MCL-1 = MCL-1 (Homo sapiens, UniProt Q07820); test: MCL-1 protein levels by immunoblotting in HCC-1806 cells; type: cell-based; set-up: endogenous in cells; host or cells: HCC-1806; settings: immunoblot
Method: Figure 1 MCL-1 levels are elevated in cancer cells after treatment with MCL-1-binding small molecules. (a) H929 multiple myeloma cells were treated for 4 h with 10 μM A-1210477 before immunopreciptating MCL-1. […] A control H929 lysate was run in lane 1, and an immunoprecipitation with a non-specific antibody (Ig) was run in lane 2. The positions of molecular weight markers (specified in kiloDaltons) are indicated on the left. (b) HCC-1806 breast cancer cells were incubated with increasing concentrations of A-1210477 (0.1, 0.5, 1, 5, 10, 15, or 20 μM) or bortezomib (2, 10, or 50 nM) for 8 h before assessing MCL-1 and NOXA levels by immunoblotting. β-Actin was probed as a protein loading control. The lower graph depicts reverse transcriptase-PCR quantification of MCL1 mRNA from HCC-1806 cells treated for 8 h with similar concentrations of A-1210477. (c) HCC-1806 cells were incubated with increasing concentrations (0.1, 0.5, 1, 5, 10, and 20 μM) of A-954248, A-962653, or A-1248767 for 24 h before assessing MCL-1 and BCL-XL levels by immunoblotting. β-Actin was probed as a protein loading control
Cells were scraped into cold PBS, pelleted, and then resuspended in 100–200 μl ice-cold insect cell lysis buffer supplemented with protease inhibitors (BD Biosciences Pharmingen, San Diego, CA, USA). Cells were lysed by sonication, and the debris was cleared in a microcentrifuge. […]

BCL-2–BAD complexes = molecular target: T1, BCL-2–BAD complexes (Homo sapiens, UniProt P10415); test: Live cell redistribution assay, eGFP-BCL-2 and mCherry-BAD, T-REx-293 cells; type: cell-based; settings: 10 μM, 300 min
T1 construct: expressed in transfected cells; host or cells: T-REx-293, bicistronic expression module integrated at a single genomic site
Source text: To further rule out potential artifacts associated with lysate detergents that can influence interactions between BCL-2 family proteins,[47] we employed a recently described real-time imaging method to assess the effects on BCL-2 family complexes in live cells.[48] Briefly, interacting pairs of BCL-2 family proteins are expressed as fluorescent fusion proteins at stoichiometric levels from a bicistronic expression module integrated into a single site of the genome in T-REx-293 cells. […]
Figure 3 A-1210477 inhibits MCL-1-BIM complexes in live cells. […] The decrease in amount of mCherry-BH3 protein localized to the mitochondria was quantified as a function of time as described in the Materials and Methods, normalized to DMSO control, and fitted to a single exponential decay. Each data point represents the mean change in intensity calculated from 10 fields of view, with error bars indicating the S.E.M. (b) T-REx-293 cells stably expressing eGFP-MCL-1(3B) and mCherry-BIMS(2A)ΔC were treated with 50 μM ABT-737 or increasing concentrations (1–25 μM) A-1210477 for 100 min. The decrease in amount of mCherry-BIMS(2A)ΔC localized to the mitochondria was quantified as in panel (a). (c) Representative fluorescence microscopic images of T-REx-293 cells stably expressing eGFP-BCL-2 family and interacting mCherry-BH3-only proteins before and after 300 min of treatment with 10 μM A-1210477 or (d) ABT-737. […]

[1] = set-up: method as in PMID 25679114; settings: cited from earlier work

Sequence of MCL-1 (Q07820 whole entry): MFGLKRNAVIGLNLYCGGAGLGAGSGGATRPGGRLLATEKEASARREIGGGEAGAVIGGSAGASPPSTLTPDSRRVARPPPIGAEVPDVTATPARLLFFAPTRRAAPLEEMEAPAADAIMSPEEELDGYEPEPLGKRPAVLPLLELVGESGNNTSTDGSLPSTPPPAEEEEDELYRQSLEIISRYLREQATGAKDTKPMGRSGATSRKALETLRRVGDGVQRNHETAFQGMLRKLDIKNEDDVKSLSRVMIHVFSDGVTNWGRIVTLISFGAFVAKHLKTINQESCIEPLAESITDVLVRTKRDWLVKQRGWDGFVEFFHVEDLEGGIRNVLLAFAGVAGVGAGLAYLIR
T1 sequence (P10415 whole entry, one chain of several): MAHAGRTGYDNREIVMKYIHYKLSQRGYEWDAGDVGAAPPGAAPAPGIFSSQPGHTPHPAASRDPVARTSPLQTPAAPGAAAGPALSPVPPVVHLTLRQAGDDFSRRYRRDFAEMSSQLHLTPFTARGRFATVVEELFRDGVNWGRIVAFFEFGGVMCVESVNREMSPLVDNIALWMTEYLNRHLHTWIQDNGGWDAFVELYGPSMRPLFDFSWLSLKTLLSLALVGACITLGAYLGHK

Cc1nn(C)c(COc2ccc(N3CCN(S(=O)(=O)N(C)C)CC3)cc2)c1-c1cccc2c(CCCOc3cccc4ccccc34)c(C(=O)O)n(CCN3CCOCC3)c12 [A-1210477]
effect on MCL-1 protein levels (MCL-1; 0.1-20 μM): triggered MCL-1 elevation
lowest concentration at which increases in MCL-1 protein could be observed (MCL-1; 8 h or 24 h): 0.5 µM
redistribution of mCherry-BAD associated with BCL-2 (BCL-2–BAD complexes): no effect
human protein binding [1]: > 99%
